Consider four compounds from ChEMBL document CHEMBL5036349, “Development of potent dual PDK1/AurA kinase inhibitors for cancer therapy: Lead-optimization, structural insights, and ADME-Tox profile” (Eur J Med Chem, 2021).

Active and inactive are the calls of the source. The calls are words filed in the database; no cut-off is given here.

For data set [1], the system named is SK-N-MC. Kind of data set: Inhibition of human Akt in human SK-N-MC cell assessed as inhibition of Akt phosphorylation at 1 uM measured after 30 min by Western blot analysis. The class given is tissue-based. On the technique in general: Immunoblotting shows a protein as a band on a membrane.
The next data set concerns NCI-H82. Kind of data set: Cytotoxicity against human NCI-H82 cells measured after 72 hrs by MTT assay. The data set is classed as functional, cell-based. The following applies: NCI-H82, 72 h. In general terms: Formazan colour is commonly taken as a measure of viable cells.
In data set [2] the test system is Rec1. In words: Cytotoxicity against human REC1 cells measured after 72 hrs by MTT assay. The class given is functional, cell-based. The following applies: Rec1, 72 h.
Data set [3] in a line: Clearance in CD-1 mouse at 10 mg/kg iv measured by UPLC-MS/MS method. The class given is ADME, organism-based. The following applies: in vivo.
The next data set deals with PC-3. In words: Cytotoxicity against human PC-3 cells measured after 72 hrs by MTT assay. The conditions noted are these: PC-3, 72 h. The class given is functional, cell-based.
Data set [4] concerns HCT-116. Kind of data set: Cytotoxicity against human HCT-116 cells at 30 uM assessed as cell proliferation rate measured after 72 hrs by MTT assay relative to control. The data set is classed as functional.
Data set [5] relates to SK-N-MC. Kind of data set: Cytotoxicity against human SK-N-MC cells at 30 uM assessed as cell proliferation rate measured after 72 hrs by MTT assay relative to control. The data set is classed as functional.
Data set [6] relates to SK-N-MC. In words: Cytotoxicity against human SK-N-MC cells measured after 72 hrs by MTT assay. The data set is classed as functional, cell-based.
For another data set, the system named is CAKI-1. Kind of data set: Cytotoxicity against human CAKI-1 cells measured after 72 hrs by MTT assay. The class given is functional, cell-based. The following applies: CAKI-1, 72 h.
The nature of data set [7]: Cytotoxicity against hTERT cells at 10 uM measured after 24 to 48 hrs by Cell-titer glo assay relative to control. The class given is cell-based. The following applies: human, time 24-48 hrs.
In data set [8] the test system is SK-N-MC. In words: Inhibition of MAPK signaling in human SK-N-MC cell assessed as decrease in phosphorylated ERK 1/2 at 1 uM measured after 30 min by Western blot analysis. The data set is classed as tissue-based.
A further data set relates to 786-0. Kind of data set: Cytotoxicity against human 786-0 cells measured after 72 hrs by MTT assay. The data set is classed as functional, cell-based. The following applies: 786-0, 72 h.
Another data set relates to MCF7. In words: Cytotoxicity against human MCF7 cells measured after 72 hrs by MTT assay. The following applies: MCF7, 72 h. The data set is classed as functional, cell-based.
The nature of data set [9]: Cytotoxicity against human TC71 cells at 30 uM assessed as cell proliferation rate measured after 72 hrs by MTT assay relative to control. The data set is classed as functional. The conditions noted are these: TC-71.
In data set [10] the test system is SK-N-MC. In words: Upregulation of Cdc2 protein expression level in human SK-N-MC cell at 1 uM incubated for 2 hrs by western blot analysis. The class given is functional, tissue-based.
Data set [11] relates to HCT-116. In words: Anticlonogenic activity against human HCT-116 cells assessed as reduction of cell survival at 0.5 to 20 uM measured after 10 days by SRB staining clonogenic survival assay. The class given is functional, cell-based. The following applies: dose 0.5-20 µM, time 10.0 day. (In general: Sulforhodamine B stains cellular protein and so reports cell mass.)
Data set [12] concerns Rec1. Kind of data set: Cytotoxicity against human REC1 cells at 30 uM assessed as cell proliferation rate measured after 72 hrs by MTT assay relative to control. The data set is classed as functional.
The nature of data set [13]: Drug uptake in human […] cell at 1.5 uM measured with in 5 min by UPLC-MS/MS analysis. The class given is ADME, tissue-based.
The nature of data set [14]: AUC in CD-1 mouse at 10 mg/kg iv measured by UPLC-MS/MS method. The data set is classed as ADME, organism-based. Set-up: dose 10 mg/kg. The following applies: in vivo.
Data set [15] addresses Ribosomal protein S6 kinase alpha-3 (Homo sapiens) (UniProt P51812). In words: Inhibition of human RSK2 in human SK-N-MC cell assessed as inhibition of RSK2 phosphorylation at 1 uM measured after 30 min by Western blot analysis. The class given is tissue-based.
The test system of the next data set is TC-32. In words: Cytotoxicity against human TC-32 cells measured after 72 hrs by MTT assay. The class given is functional, cell-based. The following applies: TC-32, 72 h.
The nature of data set [16]: Drug uptake in human […] cell at 1.5 uM measured upto 120 min by UPLC-MS/MS analysis. The conditions noted are these: 2 h. The class given is ADME, tissue-based.
Another data set relates to NCI-H69. In words: Cytotoxicity against human NCI-H69 cells measured after 72 hrs by MTT assay. The class given is functional, cell-based. The following applies: NCI-H69, 72 h.
Data set [17] in a line: Cytotoxicity against human TC71 cells measured after 72 hrs by MTT assay. The data set is classed as functional, cell-based. The conditions noted are these: TC-71, 72 h.
Data set [18] relates to SK-N-MC. In words: Upregulation of C-Myc protein expression level in human SK-N-MC cell at 1 uM incubated for 2 hrs by western blot analysis. The class given is functional, tissue-based.
Data set [19] can be described thus: Cytotoxicity against human 6647 cells measured after 72 hrs by MTT assay. The class given is functional, cell-based. The conditions noted are these: Homo sapiens, 6647, 72 h.
The test system of data set [20] is HCT-116. Kind of data set: Cytotoxicity against human HCT-116 cells measured after 72 hrs by MTT assay. The class given is functional, cell-based. The following applies: HCT-116, 72 h.
Data set [21] concerns the target 3-phosphoinositide-dependent protein kinase 1 (Homo sapiens) (UniProt O15530). In words: Modulation in PDK-1 phosphorylation in human SK-N-MC cell at 1 uM measured after 30 min by Western blot analysis.
In a further data set the test system is TC-71. Kind of data set: Anticlonogenic activity against human TC71 cells assessed as reduction of cell survival at 0.5 to 20 uM measured after 10 days by SRB staining clonogenic survival assay. The class given is functional, cell-based. The conditions noted are these: dose 0.5-20 µM, time 10.0 day.
The subject of data set [22] is SK-N-MC. Kind of data set: Upregulation of p21 protein expression level in human SK-N-MC cell at 1 uM incubated for 2 hrs by western blot analysis. The class given is functional, tissue-based.
The subject of data set [23] is SK-N-MC. In words: Upregulation of RB1 protein expression level in human SK-N-MC cell at 1 uM incubated for 2 hrs by western blot analysis. The class given is functional, tissue-based.
The target of data set [24] is Histone deacetylase 9 (Homo sapiens) (UniProt Q9UKV0). In words: Inhibition on human recombinant HDAC9 at 10 uM measured after 20 min by luminescence glo assay.
In the next data set the test system is IGROV-1. In words: Cytotoxicity against human IGROV-1 cells measured after 72 hrs by MTT assay. The class given is functional, cell-based. The conditions noted are these: IGROV-1, 72 h.
Data set [25] addresses {'v': 'CYP2C9', 'o': 'p', 'q': 'Inhibition of CYP2C9 (unknown origin)'} (Homo sapiens, UniProt P11712). In words: Inhibition of CYP2C9 (unknown origin) at 10 uM pre-incubated for 30 min followed by addition of NADPH and measured after 30 min by Luminescence based plate reader method relative to control. The data set is classed as ADME. The following applies: time 60 min.

The target of data set [26] is T1, {'v': 'CYP1A2', 'o': 'p', 'q': 'Inhibition of CYP1A2 (unknown origin)'} (Homo sapiens, UniProt P05177).
T1 sequence (P05177 whole entry): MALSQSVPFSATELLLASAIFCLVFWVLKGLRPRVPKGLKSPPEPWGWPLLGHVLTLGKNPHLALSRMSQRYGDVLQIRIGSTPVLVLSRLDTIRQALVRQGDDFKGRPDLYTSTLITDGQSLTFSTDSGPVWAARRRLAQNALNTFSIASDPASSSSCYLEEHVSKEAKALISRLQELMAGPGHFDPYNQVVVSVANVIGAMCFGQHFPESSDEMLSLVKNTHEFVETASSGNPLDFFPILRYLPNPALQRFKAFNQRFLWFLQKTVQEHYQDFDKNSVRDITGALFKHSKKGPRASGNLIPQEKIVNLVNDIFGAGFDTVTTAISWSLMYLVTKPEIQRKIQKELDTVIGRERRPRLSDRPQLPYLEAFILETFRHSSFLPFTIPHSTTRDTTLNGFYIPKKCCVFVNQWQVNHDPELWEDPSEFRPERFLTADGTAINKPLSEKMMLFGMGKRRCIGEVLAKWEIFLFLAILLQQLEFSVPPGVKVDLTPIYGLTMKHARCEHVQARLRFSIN
In words: Inhibition of CYP1A2 (unknown origin) at 10 uM pre-incubated for 30 min followed by addition of NADPH and measured after 30 min by Luminescence based plate reader method relative to control. The data set is classed as ADME. The following applies: time 60 min.

As usually defined, the inhibition is the change of the read-out against control, counted positive when it falls. Usually IC50 stands for the concentration needed to halve the response being measured. The term AUC denotes concentration integrated over time. Lower therefore signals low exposure. Take `O=C1Nc2ccc(NC(=O)[C@H](NC(=O)c3cccn(Cc4ccc(F)c(F)c4)c3=O)c3ccccc3)cc2/C1=C/c1cnc[nH]1` (stereo in doubt): the inhibition result (in the data set on SK-N-MC [1]; with SK-N-MC [8]; in data set [15]) was “Active” each time. Also, the IC50 in the data set on NCI-H82 is greater than 30 µM; with Rec1 [2], 11 µM; in the data set on PC-3, greater than 30 µM; with SK-N-MC [6], 3 µM; in the data set on CAKI-1 it was greater than 30 µM; with 786-0, greater than 30 µM. Further, the IC50 in the data set with MCF7 is greater than 30 µM; in the data set on TC-32, greater than 30 µM; with NCI-H69, greater than 30 µM; in data set [17] it was 16.9 µM; in data set [19], 4.8 µM; in the data set on HCT-116 [20] it was 3.6 µM. For the same compound, in the data set on IGROV-1, the concentration for half-maximal inhibition (IC50) is greater than 30 µM. The compound also had a CL in data set [3] of 75 mL/h. Also, the Emax at 30 µM in the data set on HCT-116 [4] turned out to be 60%; in the data set on SK-N-MC [5], 75%; in data set [9] it was 60%; in the data set on Rec1 [12], 55%. Also, the Activity in data set [7] is less than 25%; in the data set with HCT-116 [11] it was “Dose-Dependent Effect”; in the data set with TC-71 it was “Dose-Dependent Effect”. The result with SK-N-MC [10], in the data set on SK-N-MC [18], in the data set with SK-N-MC [22] and with SK-N-MC [23] was Active. Moreover, the figures for the Drug uptake in [13] and in data set [16] were 100 ng/mL and 800 ng/mL, respectively. In [14], this compound displayed an exposure (AUC) of 4220 ng·h/mL. The outcome in data set [21] was inactive. In [24], the inhibition is less than 30%.

For `Cc1ccc(C(=O)NCC(=O)Nc2ccc3c(c2)/C(=C/c2cnc[nH]2)C(=O)N3)c(=O)n1Cc1ccc(F)c(F)c1`, the inhibition at 0.5 h, 10 µM in data set [25] and in data set [26] was greater than 90% in each case. For the same compound, the Activity in data set [7] is less than 25%. Also, in data set [24], the inhibition was less than 30%.

With `O=C(CCNC(=O)c1cccn(Cc2ccc(F)c(F)c2)c1=O)Nc1ccc2c(c1)/C(=C/c1cnc[nH]1)C(=O)N2`, the inhibition at 0.5 h, 10 µM in data set [25] and in [26] was greater than 90% in each case. Also, the Activity in data set [7] is less than 25%. Moreover, the inhibition in [24] is less than 30%.

`Cc1c(Br)cc(C(=O)N[C@@H](C(=O)Nc2ccc3c(c2)/C(=C/c2cnc[nH]2)C(=O)N3)c2ccccc2)c(=O)n1Cc1ccc(F)c(F)c1`: the IC50 with NCI-H82, in the data set with PC-3, in the data set on SK-N-MC [6], in the data set with CAKI-1, in the data set on 786-0 and in the data set on MCF7 was greater than 30 µM throughout. Besides, the IC50 (in the data set on TC-32; in the data set with NCI-H69; in [17]; in data set [19]; in the data set on HCT-116 [20]; in the data set on IGROV-1) was greater than 30 µM each time. In addition, the inhibition at 0.5 h, 10 µM in data set [25] and in data set [26] was less than 45% throughout. This compound also showed an Activity in data set [7] of less than 25%. Also, the inhibition in data set [24] is less than 30%.
